Series [1] deals with MCF7. Kind of series: Cytotoxicity against human MCF7 cells assessed as cell growth inhibition incubated for 48 hrs by AlamarBlue assay. Format: functional, cell-based. The following applies: MCF7, 48 h.
Series [2] in a line: Cytotoxicity against CHO cells assessed as cell growth inhibition incubated for 48 hrs by AlamarBlue assay. Format: toxicity, cell-based, Cricetulus griseus. The note with it: Chinese hamster.
The nature of series [3]: Retention time of the compound by HPLC analysis. Format: physicochemical.
The nature of series [4]: Biodistribution in mouse CCRF S-180 tumor cells xenografted in ICR mouse measured after 120 mins. It counts as ADME, organism-based. The note with it: read-out: Drug uptake.
In the next series the test system is K562. Kind of series: Cytotoxicity against human K562 cells assessed as cell growth inhibition incubated for 24 hrs by MTT assay. It counts as functional, cell-based. The note with it: K562, 24 h.
The subject of another series is SK-OV-3. Kind of series: Cytotoxicity against human SK-OV-3 cells assessed as inhibition of cell proliferation incubated for 24 hrs by MTT assay. It counts as functional, cell-based. The note with it: SK-OV-3, 24 h.
Series [5] is described as follows: Biodistribution in mouse CCRF S-180 tumor cells xenografted in ICR mouse measured after 240 mins. It counts as ADME, organism-based. The note with it: read-out: Drug uptake.
A further series has as its system HT-29. Kind of series: Cytotoxicity against human HT-29 cells assessed as cell growth inhibition measured after 24 hrs by MTT assay. Format: functional, cell-based. The note with it: HT-29, 24 h.
In series [6] the test system is SAOS-2. Kind of series: Cytotoxicity against human SAOS-2 cells assessed as cell growth inhibition incubated for 72 hrs by resazurin reduction method. Format: functional, cell-based. The note with it: SAOS-2, 72 h.
In another series the test system is H-EMC-SS. Kind of series: Cytotoxicity against human H-EMC-SS cells assessed as cell growth inhibition incubated for 72 hrs by resazurin reduction method. It counts as functional, cell-based.
Series [7] relates to MCF7. Kind of series: Cytotoxicity against human MCF7 cells assessed as cell growth inhibition incubated for 24 hrs by MTT assay. It counts as functional, cell-based. The following applies: MCF7, 24 h.
The subject of series [8] is MDA-MB-231. Kind of series: Cytotoxicity against human MDA-MB-231 cells assessed as reduction in cell viability at 15 uM incubated for 24 hrs by MTT assay relative to control. It counts as functional.
Series [9] has as its system MDA-MB-231. Kind of series: Inhibition of DNA synthesis in human MDA-MB-231 cells at 15 uM incubated upto 72 hrs by [3H]thymidine incorporation assay relative to control. It counts as functional.
The test system of another series is MC3T3-E1. Kind of series: Cytotoxicity against mouse MC3T3-E1 cells assessed as cell growth inhibition. Format: functional, cell-based.
For series [10], the system named is SAOS-2. Kind of series: Cytotoxicity against human SAOS-2 cells assessed as cell growth inhibition. Format: functional, cell-based.
In series [11] the target is 72 kDa type IV collagenase (Homo sapiens, UniProt P08253). Kind of series: Prodrug conversion assessed as MMP-2 (unknown origin)-mediated drug release by measuring half life by HPLC analysis. It counts as ADME.
The next series relates to U2OS. Kind of series: Cytotoxicity against human U2OS cells assessed as cell growth inhibition. Format: functional, cell-based.
The nature of series [12]: Prodrug conversion assessed as drug excretion measured after 6 days by HPLC analysis. It counts as ADME. The note with it: 144 h; time 6 day.
Series [13] concerns Lymphoma cell line. Kind of series: Potency index, ratio of Melphalan IC50 to test compound IC50 for cytotoxicity against patient-derived human lymphoma cells assessed as cell growth inhibition incubated for 72 hrs by FMCA assay. Format: functional.
The subject of series [14] is Lymphoma cell line. Kind of series: Cytotoxicity against patient-derived human lymphoma cells assessed as cell growth inhibition incubated for 72 hrs by FMCA assay. Format: functional, cell-based.
The nature of series [15]: Plasma protein binding in human. It counts as ADME.
The nature of series [16]: Plasma protein binding in human by ultrafiltration method. It counts as ADME. The following applies: read-out: PPB (converted).
A short description of series [17]: Plasma protein binding in human assessed as unbound fraction. It counts as ADME.

Here are results for 15 compounds from ChEMBL document CHEMBL5214922, “Melphalan: Recent insights on synthetic, analytical and medicinal aspects” (Eur J Med Chem, 2022).

≈ marks a conversion by molar mass, not a printed value. Non-standard residues stand in square brackets, D forms with d. Residues, ends and D or L forms follow the SMILES beside them. ξ: configuration not given here. *: point of attachment. ξPhe(4-N(CH2CH2Cl)2) = NC(Cc1ccc(N(CCCl)CCCl)cc1)C(=O)O; X1 = O=P(O)(O)C(CN*)P(=O)(O)O

Sequence of 72 kDa type IV collagenase (P08253 whole entry): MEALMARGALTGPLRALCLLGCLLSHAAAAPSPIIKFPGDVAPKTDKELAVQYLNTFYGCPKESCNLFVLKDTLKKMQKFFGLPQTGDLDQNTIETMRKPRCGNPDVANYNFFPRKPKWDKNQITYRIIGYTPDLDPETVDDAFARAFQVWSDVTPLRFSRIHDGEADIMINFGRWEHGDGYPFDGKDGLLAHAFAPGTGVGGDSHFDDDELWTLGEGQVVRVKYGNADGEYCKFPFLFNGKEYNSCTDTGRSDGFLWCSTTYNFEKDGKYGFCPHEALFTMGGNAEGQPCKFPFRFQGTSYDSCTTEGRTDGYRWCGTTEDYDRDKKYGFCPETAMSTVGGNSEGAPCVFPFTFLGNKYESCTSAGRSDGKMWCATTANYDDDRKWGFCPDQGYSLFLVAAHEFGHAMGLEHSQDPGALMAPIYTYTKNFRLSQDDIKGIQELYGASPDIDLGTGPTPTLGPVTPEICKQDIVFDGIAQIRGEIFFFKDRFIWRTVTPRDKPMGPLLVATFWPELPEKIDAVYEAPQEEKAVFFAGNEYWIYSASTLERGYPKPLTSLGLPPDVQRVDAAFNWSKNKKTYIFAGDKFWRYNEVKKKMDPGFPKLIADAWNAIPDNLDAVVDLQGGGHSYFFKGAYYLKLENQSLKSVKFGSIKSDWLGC

For the compound `C=C1C(=O)O[C@@H]2C3O[C@]3(C)CC/C=C(\C)CC[C@@H]12` (stereo partly drawn), the 50% inhibitory concentration (IC50) in the series on MCF7 [1] was above 20 µM.

For `C/C1=C\CC[C@@]2(C)O[C@H]2[C@H]2OC(=O)C(CNc3ccn(C4OC(CO)[C@H](O)[C@@H]4O)c(=O)n3)[C@@H]2CC1` (stereo partly drawn), in series [2], the IC50 at 48 h came out at 1740 nM.

Compound `C/C1=C\CC[C@@]2(C)O[C@H]2[C@H]2OC(=O)C(CNC(Cc3ccc(N(CCCl)CCCl)cc3)C(=O)O)[C@@H]2CC1` (stereo partly drawn) had a Retention_time in [3] of 14.5 min. In series [4], the tissue uptake at 2 h came out at 1.63 %ID/g.

Take `CC1(C)CC(NC(=O)C(N)Cc2ccc(N(CCCl)CCCl)cc2)CC(C)(C)N1[O]` (stereo not drawn): the IC50 in the series on K562 stood at 36.3 µM.

As for `NC1=NC2N=CC(CNc3ccc(C(=O)NCC(CCC(=O)NCC(=O)NCC(=O)NC(Cc4ccc(N(CCCl)CCCl)cc4)C(=O)O)C(=O)NCC(=O)NCC(=O)NC(Cc4ccccc4)C(=O)O)cc3)N=C2C(=O)N1` (stereo not drawn), the IC50 with SK-OV-3 stood at 4.1 µg/mL (≈ 3.66 µM).

For the compound `CN(C)c1ccc(/C=N\Nc2ccc(CN[C@@H](Cc3ccc(N(CCCl)CCCl)cc3)C(=O)O)cc2)cc1`, the tissue uptake at 4 h in [5] turned out to be 0.98 %ID/g.

For `CCOC(=O)CNC(=O)[C@H](Cc1ccc(N(CCCl)CCCl)cc1)NC(=O)[C@@H](N)[C@@H](C)CC`, in the series with HT-29, the concentration for half-maximal inhibition (IC50) is 40 µM.

Consider `C[N+](C)(C)CCCNC(=O)[C@@H](N)Cc1ccc(N(CCCl)CCCl)cc1`, for which the 50% inhibitory concentration (IC50) amounted to 37.5 µM with SAOS-2 [6] and 14 µM in the series with H-EMC-SS.

`O=C(O)CN(CCN(CC(=O)O)CC(=O)O)CCN(CC(=O)O)CC(=O)N[C@@H](Cc1ccc(N(CCCl)CCCl)cc1)C(=O)O`: the Retention_time in series [3] is given as 10.72 min. The tissue uptake at 2 h in series [4] turned out to be 1.03 %ID/g.

With `COC(=O)C(Cc1ccc(N(CCCl)CCCl)cc1)NC(=O)c1ccc(-c2ccc(C(=N)NC(C)C)cc2)o1` (stereo not drawn), the 50% inhibitory concentration (IC50) with MCF7 [7] came to 23 µM.

With `O=C(O)C(Cc1ccc(N(CCCl)CCCl)cc1)NCC(=O)N1CCCC1C(=O)O` (stereo not drawn), the inhibition at 15 µM with MDA-MB-231 [8] was determined as 55%; with MDA-MB-231 [9], 30%.

For `CC(C)C[C@H](NC(=O)CNC(=O)[C@H](CC(C)C)NC(=O)[C@@H]1CCCN1C(=O)C(N)Cc1ccc(N(CCCl)CCCl)cc1)C(=O)N[C@@H](C)C(=O)NCC(=O)NCC(P(=O)(O)O)P(=O)(O)O` (stereo partly drawn) (H-[ξPhe(4-N(CH2CH2Cl)2)]PLGLAG-X1), the IC50 in the series on MC3T3-E1, with SAOS-2 [10] and with U2OS was 790 nM throughout. Besides, the t1/2 in series [11] was 75 min. For the same compound, the Drug excretion in series [12] was found to be 75%.

As for `Nc1ccn([C@@H]2O[C@H](CO)[C@@H](O)[C@@H]2O)c(=O)n1` [CYTARABINE], the IC50 in the series with MCF7 [1] was above 20 µM.

`CCOC(=O)[C@H](Cc1ccc(F)cc1)NC(=O)[C@@H](N)Cc1ccc(N(CCCl)CCCl)cc1` [MELPHALAN FLUFENAMIDE]: the “Ratio IC50” value in the series with Lymphoma cell line [13] is listed as 49. For the same compound, the IC50 with Lymphoma cell line [14] came to 11 nM.

As to `N[C@@H](Cc1ccc(N(CCCl)CCCl)cc1)C(=O)O` [MELPHALAN], the PPB in series [15] is 40 µg/mL. Besides, the inhibition at 15 µM in the series on MDA-MB-231 [8] came out at 40%. The IC50 was 680 nM in the series on MC3T3-E1; 65.7 µM in the series with K562; 680 nM in the series with SAOS-2 [10]; 77 µM in the series with MCF7 [7]; above 20 µM in the series on MCF7 [1]; 680 nM with U2OS. Also, in series [16], the fraction unbound is 0.31. For the same compound, in [17], the “Cp(f)” value was 2.5 µg/mL.
